# Earlier results in patent US8372933B2, “Hyperbranched polymers based on cyclodextrins and poly (amidoamines) for the controlled release of insoluble drugs” (L'Urederra Fundacion Para el Desarrollo Tecnologico y Social, priority 2007, dated 2013).
# Settings: oral
structure (smiles),measurement,value
Nc1nc2c(ncn2COCCO)c(=O)[nH]1 [Acyclovir],bioavailability,15-30%
